Reference: US10391151B2, “Dilute surfactant or isolated surfactant protein solution for the reduction of surface tension in the lung” (The Trustees of the Stevens Institute of Technology, priority 2015, dated 2019)
Where no end group is shown, it is not given here. The star is where a group is joined. Biotin = O=C1N[C@H]2[C@H](CS[C@H]2CCCCC(=O)*)N1

What was measured:
[1] = tested on: heterogeneously flooded region of the isolated, perfused adult rat lung; test: Ventilation injury score in the isolated, perfused adult rat lung (Method 2); details: for Injury score: flooding solution normal saline with 5% albumin, solutes at about the concentrations present in 1% SURVANTA solution, n=1 or 2/group (FIG. 2A)
Excerpt: Method 2. Ventilation ‘injury score’ in the adult rat lung. In the isolated, perfused adult rat lung, a surface alveolus is micropunctured and a non-fluorescent test solution is instilled. In experimental regions, a sufficiently large volume of liquid is instilled to generate a pattern of heterogeneous alveolar flooding; in control regions, a sufficiently small volume of liquid is instilled that the liquid spontaneously clears from the region, leaving behind a micropunctured-but-aerated region. Fluorescent dye, at a low concentration verified not to alter surface tension, is included in the perfusate. The region is imaged by confocal microscopy over a five minute baseline period at a constant transpulmonary pressure of 5 cm H2O. Five ventilation cycles are supplied to the lung, at 0.33 Hz with a positive end-expiratory pressure of 15 cm H2O and a tidal volume of 6 ml/kg body weight. The lung is then returned to a constant transpulmonary pressure of 5 cm H2O and imaged for 10 additional minutes. Alveolar liquid fluorescence at all time points is normalized by capillary fluorescence.
At baseline, alveolar liquid fluorescence (in flooded alveoli of experimental regions or in the liquid lining layer of control, aerated regions) is low and constant in all regions. Following ventilation, alveolar liquid fluorescence remains unchanged in aerated regions but continually increases with time in heterogeneously flooded regions. […] The increase above baseline in normalized alveolar liquid fluorescence at the last time point of the experiment is used as an injury score. The injury score, which indicates the rate of increase of normalized fluorescence following ventilation, correlates with surface tension of the test solution.
2. degree of ventilation induced injury in a region of the isolated, perfused adult rat lung in which surface alveoli have been flooded, in a heterogeneous fashion, with a test solution;

[2] = tested on: surface alveoli of the isolated adult rat lung; test: Surface tension determination in alveoli of the isolated adult rat lung (Method 1)
Protocol: Method 1. Surface tension determination in the adult rat lung. […] In flooded alveoli, the air-liquid interface forms a meniscus, at which surface tension is determined as follows. Alveolar air pressure is determined with a transducer at the trachea of the constantly-inflated lung. Alveolar liquid phase pressure is determined by servo-nulling pressure measurement. Meniscus radius of curvature is determined by confocal microscopy. Surface tension is calculated according to the Lapalce relation.
1. direct surface tension determination in surface alveoli of the isolated adult rat lung, which contains native lung surfactant, following alveolar instillation of a test solution;

[3] = 10 μM NaOH alone, without dextran, in the absence or presence of SURVANTA

CCCCCCCCCCCCCCCC(=O)OC[C@H](COP(=O)([O-])OCC[N+](C)(C)C)OC(=O)CCCCCCCCCCCCCCC [DPPC, dipalmitoylphosphatidylcholine, reference compound]
Injury score [1]: Only SP-C and sSP-C lower injury score

[Na+].[OH-] [NaOH]
Effect on surface tension [2, 3]: no effect | Effect on lung injury [1, 3]: no effect

fibrinogen
Facilitation of the surface activity of 1 vol % SURVANTA ([2]; 5 w/v % solute, adult rat lung, dextran negative charge imparted by 10 μM NaOH (FIGS. 1A and B)): facilitate

sSP-Css-ion lock-B: a variant of sSP-Css-ion lock with a biotinylated N-terminal (Biotin-GIPSSPVHLKRLLIVVVVVELIVKVIVGALLMGL)
Injury score [1]: lower injury score

B1: SP-B: surfactant protein B isolated from pulmonary alveolar proteinosis patients (protein, UniProt P07988 201-279, looked up)
Pulmonary …: FPIPLPYCWLCRALIKRIQAMIPKGALAVAVAQVCRVVPLVAGGICQCLAERYSVILLDTLLGRMLPQLVCRLVLRCSM
modifications: Pulmonary surfactant-associated protein B
notes: surfactant protein B isolated from pulmonary alveolar proteinosis patients
Injury score [1]: Only SP-C and sSP-C lower injury score
